The source of these data is DBAASP.

Among the test systems are Salmonella typhimurium; Bacillus subtilis 168; Escherichia coli B; Pseudomonas aeruginosa; Staphylococcus aureus.
Holding throughout (assay): ≥ marks a high value that may be exact or a test limit, other limits are often not marked, values filed in µg/mL are converted to µM
Test [1] deals with Acinetobacter baumannii ATCC 19606.
Test [2] concerns Bordetella bronchiseptica CUN 11844-99.
For test [3], the system named is Escherichia coli ATCC 25922.
The subject of test [4] is Pseudomonas aeruginosa ATCC 27853.
In test [5] the test system is Pseudomonas aeruginosa CUN 4158-02.
In test [6] the test system is Staphylococcus aureus ATCC 25923.
For test [7], the system named is Staphylococcus aureus ATCC 43300.
Test [8] deals with Staphylococcus aureus CUN 3792-99.
Test [9] concerns Stenotrophomonas maltophilia CUN 3998-00.
Test [10] deals with Candida albicans ATCC 90028.
Test [11] has as its system Enterobacter cloacae NHTCC 53001.
Test [12] relates to Klebsiella pneumoniae KK3 9904.
For test [13], the system named is Pseudomonas aeruginosa 77319.
For test [14], the system named is Pseudomonas aeruginosa 77733.
Test [15] concerns Pseudomonas aeruginosa 77905.
In test [16] the test system is Pseudomonas aeruginosa 78073.
Test [17] relates to Pseudomonas aeruginosa 78078.
In test [18] the test system is Pseudomonas aeruginosa 78327.
Test [19] has as its system Pseudomonas aeruginosa 78887.
In test [20] the test system is Pseudomonas aeruginosa 78888.
Test [21] concerns Pseudomonas aeruginosa 78905.
The subject of test [22] is Pseudomonas aeruginosa 87104.
Test [23] concerns Staphylococcus aureus NCTC 8325.
In test [24] the test system is Aeromonas salmonicida NCIMB 1102.
For test [25], the system named is Bacillus subtilis IAM 1026.
Test [26] relates to Escherichia coli JCM 1649.
The test system of test [27] is Photobacterium damselae subsp. piscicida Sp 9587.
Test [28] has as its system Shewanella putrefaciens IAM 1509.
The subject of test [29] is Staphylococcus aureus IAM 1011.
Test [30] concerns Vibrio anguillarum NCIMB 829.
Test [31] deals with Vibrio parahaemolyticus Vp+1.
The test system of test [32] is Candida albicans F7-39/IDE99.
The subject of test [33] is Micrococcus luteus CCM 144.
The subject of test [34] is Bacillus subtilis ATCC 6633.
The test system of test [35] is Klebsiella pneumoniae ATCC 10031.
For test [36], the system named is Micrococcus luteus ATCC 10240.
The test system of test [37] is Salmonella enterica subsp. enterica serovar Typhimurium ATCC 14028.
Test [38] concerns Shigella dysenteriae ATCC 9752.
Test [39] has as its system Staphylococcus aureus ATCC 6538P.
The subject of test [40] is Staphylococcus aureus TK784.
Test [41] relates to Staphylococcus epidermidis ATCC 12228.

In brackets after ≈: the same amount, converted by molar mass.

On to `CC(C)C[C@H](NC(=O)[C@H](CCCN=C(N)N)NC(=O)[C@H](CCCN=C(N)N)NC(=O)[C@H](Cc1ccccc1)NC(=O)[C@H](CCCCN)NC(=O)[C@H](CCCCN)NC(=O)[C@H](CS)NC(=O)CN)C(=O)N[C@@H](CCCCN)C(=O)N[C@@H](Cc1c[nH]c2ccccc12)C(=O)N[C@@H](CCCCN)C(=O)N[C@@H](Cc1ccc(O)cc1)C(=O)N[C@@H](CCCCN)C(=O)NCC(=O)N[C@@H](CCCCN)C(=O)N[C@@H](Cc1ccccc1)C(=O)N[C@@H](Cc1c[nH]c2ccccc12)C(=O)N[C@@H](Cc1ccccc1)C(=O)N[C@@H](Cc1c[nH]c2ccccc12)C(=O)N[C@@H](CS)C(=O)NCC(N)=O` [GCKKFRRLKWKYKGKFWFWCG], for which the MIC in test [1] was 23.2 µM (≈ 64 µg/mL); in [2], 1.45 µM (≈ 4 µg/mL); in [3], 23.2 µM (≈ 64 µg/mL); in [4], 93 µM (≈ 256 µg/mL); in test [5] it was not below 93 µM; in [6], 11.6 µM (≈ 32 µg/mL). The MIC in [7] is 23.2 µM (≈ 64 µg/mL); in test [8] it was not below 372 µM; in test [9] it was not below 186 µM.

With `CC[C@H](C)[C@H](NC(=O)[C@H](Cc1cnc[nH]1)NC(=O)[C@H](CCCCN)NC(=O)CNC(=O)[C@H](C)NC(=O)[C@@H](NC(=O)[C@H](CCCCN)NC(=O)[C@H](CC(C)C)NC(=O)[C@@H](NC(=O)CNC(=O)[C@H](CCCCN)NC(=O)[C@H](Cc1ccccc1)NC(=O)[C@H](CC(C)C)NC(=O)[C@H](CO)NC(=O)[C@H](CCSC)NC(=O)[C@H](CC(C)C)NC(=O)CN)C(C)C)[C@@H](C)O)C(=O)N[C@@H](Cc1ccccc1)C(=O)N[C@@H](CCCCN)C(=O)N[C@@H](CC(N)=O)C(=O)N[C@H](C(=O)NCC(=O)NCC(=O)N[C@@H](CO)C(=O)N[C@@H](CC(C)C)C(=O)N[C@@H](CC(C)C)C(=O)N[C@@H](CC(=O)O)C(=O)N[C@@H](CCC(N)=O)C(=O)N[C@@H](C)C(=O)N[C@@H](CCCCN)C(=O)N[C@H]1CSSC[C@@H](C(=O)O)NC(=O)[C@H](CCC(=O)O)NC(=O)CNC(=O)[C@H]([C@@H](C)O)NC(=O)[C@H]([C@@H](C)CC)NC(=O)[C@H](CCCCN)NC1=O)C(C)C` [GLMSLFKGVLKTAGKHIFKNVGGSLLDQAKCKITGEC], the MIC in test [10] is not below 100 µM; in test [11], 6 µM (≈ 23.4 µg/mL); in test [3], 6 µM (≈ 23.4 µg/mL); in test [12] it was 6 µM (≈ 23.4 µg/mL); in [13] it was 12 µM (≈ 46.7 µg/mL); in test [14], 12 µM (≈ 46.7 µg/mL). Further, the MIC in test [15] was 6 µM (≈ 23.4 µg/mL); in test [16] it was 6 µM (≈ 23.4 µg/mL); in [17] it was 12 µM (≈ 46.7 µg/mL); in test [18] it was 6 µM (≈ 23.4 µg/mL); in [19] it was 6 µM (≈ 23.4 µg/mL); in test [20] it was 12 µM (≈ 46.7 µg/mL). Also, the MIC in test [21] worked out at 12 µM (≈ 46.7 µg/mL); in [22], 6 µM (≈ 23.4 µg/mL); in [4] it was 3 µM (≈ 11.7 µg/mL); in [23], 25 µM (≈ 97.3 µg/mL).

In the case of `CC[C@H](C)[C@H](N)C(=O)NCC(=O)NCC(=O)N[C@H](C(=O)N[C@H](C(=O)N[C@@H](CO)C(=O)N[C@@H](Cc1ccccc1)C(=O)N[C@@H](Cc1ccccc1)C(=O)N[C@@H](CCCCN)C(=O)N[C@@H](CCCN=C(N)N)C(=O)N[C@@H](CC(C)C)C(=O)N[C@@H](Cc1ccccc1)C(=O)O)[C@@H](C)CC)[C@@H](C)CC` [IGGIISFFKRLF], the MIC in [24] is 17.9 µM (≈ 25 µg/mL); in test [25], 4.47 µM (≈ 6.25 µg/mL); in test [26] it was 8.94 µM (≈ 12.5 µg/mL); in [27], 4.47 µM (≈ 6.25 µg/mL); with Salmonella typhimurium, 8.94 µM (≈ 12.5 µg/mL); in [28] it was 2.24 µM (≈ 3.13 µg/mL). For the same compound, the MIC in [29] came to 4.47 µM (≈ 6.25 µg/mL); in [30] it was 4.47 µM (≈ 6.25 µg/mL); in test [31], 8.94 µM (≈ 12.5 µg/mL).

For `CC[C@H](C)[C@H](NC(=O)[C@H](C)NC(=O)CNC(=O)[C@H](Cc1c[nH]c2ccccc12)NC(=O)[C@H](CC(N)=O)NC(=O)[C@@H](N)CCCCN)C(=O)N[C@@H](CC(C)C)C(=O)N[C@@H](CCCCN)C(=O)N[C@@H](Cc1cnc[nH]1)C(=O)N[C@H](C(=O)N[C@H](C(=O)N[C@@H](CCCCN)C(N)=O)[C@@H](C)CC)[C@@H](C)CC` [KNWGAILKHIIK], the MIC against Bacillus subtilis 168 was determined as 5.8 µM (≈ 8.23 µg/mL); in test [32], 9.8 µM (≈ 13.9 µg/mL); in the test with Escherichia coli B, 17.1 µM (≈ 24.3 µg/mL); in test [33], 9 µM (≈ 12.8 µg/mL); against Pseudomonas aeruginosa, 83.3 µM (≈ 118 µg/mL); in the test with Staphylococcus aureus, 100 µM (≈ 142 µg/mL).

Regarding `CC(C)C[C@H](NC(=O)[C@H](CCCCN)NC(=O)[C@H](CCCCN)NC(=O)[C@H](CC(C)C)NC(=O)[C@H](CC(C)C)NC(=O)[C@H](CCCCN)NC(=O)[C@H](CCCCN)NC(=O)[C@H](CC(C)C)NC(=O)[C@H](Cc1c[nH]c2ccccc12)NC(=O)[C@H](CCCCN)NC(=O)[C@@H](N)CC(C)C)C(N)=O` [LKWLKKLLKKL], the minimal inhibitory concentration (MIC) was determined as 1.42 µM (≈ 2 µg/mL) in [34]; 2.84 µM (≈ 4 µg/mL) in [3]; 1.42 µM (≈ 2 µg/mL) in test [35]; 2.84 µM (≈ 4 µg/mL) in [36]; 5.67 µM (≈ 7.99 µg/mL) in test [4]; 2.84 µM (≈ 4 µg/mL) in test [37]. The MIC in test [38] was 1.42 µM (≈ 2 µg/mL); in test [39], 1.42 µM (≈ 2 µg/mL); in test [40], 5.67 µM (≈ 7.99 µg/mL); in test [41], 2.84 µM (≈ 4 µg/mL).

By MIC is commonly meant the lowest concentration found to suppress growth. A low value points to greater potency.
